ChEMBL document CHEMBL2203217, “Prohormone-substrate peptide sequence recognition by peptidylglycine α-amidating monooxygenase and its reflection in increased glycolate inhibitor potency” (Bioorg Med Chem Lett, 2012)

Assays:
[1] = biological target: T1, Peptidyl-glycine alpha-amidating monooxygenase (Homo sapiens, UniProt P19021); assay: Competitive inhibition of PAM in human DMS53 cells using as(R)-Tyr-(S)-Val-Gly as substrate after 2 hrs by HPLC analysis; type: cell-based, DMS-53
T1 sequence (P19021 whole entry): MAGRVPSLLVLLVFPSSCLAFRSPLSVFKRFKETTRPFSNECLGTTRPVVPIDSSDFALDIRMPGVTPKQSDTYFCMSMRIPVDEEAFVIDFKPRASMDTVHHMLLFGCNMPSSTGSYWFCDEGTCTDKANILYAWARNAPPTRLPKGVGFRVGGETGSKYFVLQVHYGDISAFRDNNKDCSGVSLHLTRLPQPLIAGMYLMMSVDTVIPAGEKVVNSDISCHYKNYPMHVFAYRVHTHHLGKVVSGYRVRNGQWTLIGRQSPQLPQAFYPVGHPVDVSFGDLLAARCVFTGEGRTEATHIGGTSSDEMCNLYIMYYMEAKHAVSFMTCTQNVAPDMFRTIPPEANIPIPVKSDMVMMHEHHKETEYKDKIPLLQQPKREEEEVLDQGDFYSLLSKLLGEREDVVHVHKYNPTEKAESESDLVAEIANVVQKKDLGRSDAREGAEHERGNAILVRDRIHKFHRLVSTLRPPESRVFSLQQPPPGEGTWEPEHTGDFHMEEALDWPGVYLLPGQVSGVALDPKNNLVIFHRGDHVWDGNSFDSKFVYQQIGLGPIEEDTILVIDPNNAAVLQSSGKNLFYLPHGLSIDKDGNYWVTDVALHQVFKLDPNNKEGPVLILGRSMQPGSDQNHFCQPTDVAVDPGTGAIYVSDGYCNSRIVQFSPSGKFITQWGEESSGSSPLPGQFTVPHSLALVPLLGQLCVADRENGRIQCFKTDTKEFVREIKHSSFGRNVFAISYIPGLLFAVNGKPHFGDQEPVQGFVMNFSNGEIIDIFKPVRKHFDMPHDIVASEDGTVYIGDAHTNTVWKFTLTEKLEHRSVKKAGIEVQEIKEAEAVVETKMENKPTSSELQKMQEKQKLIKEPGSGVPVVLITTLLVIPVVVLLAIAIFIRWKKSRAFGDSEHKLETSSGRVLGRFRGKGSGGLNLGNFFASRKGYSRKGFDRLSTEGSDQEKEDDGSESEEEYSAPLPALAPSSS

[2] = biological target: T1, Peptidyl-glycine alpha-amidating monooxygenase; assay: Competitive inhibition of secreted PAM in human DMS53 cell culture medium using as(R)-Tyr-(S)-Val-Gly as substrate after 2 hrs by HPLC analysis; design: species or system DMS-53

## CC(=O)N[C@@H](CC(C)C)C(=O)NCC(=O)OCC(=O)O
[1]
  IC50: 120 µM
[2]
  IC50: 200 µM
